# Results from ChEMBL document CHEMBL1128964, “Synthesis and analgesic activity of Epibatidine analogues” (Bioorg Med Chem Lett, 1996).
# Calls of active or inactive are those of the source. The rule behind the calls is not given here.
# Assays:
# Mus musculus [1] = test: Dose of compound that caused analgesic activity in mice after intraperitoneal administration; type: functional
# [2] = Lethal dose determined in Mice; type: toxicity; conditions: mouse, in vivo
# Mus musculus [3] = test: Compound was tested for analgesic activity in mice after intraperitoneal administration at a dose of 10 ug/kg; less potent; type: functional, organism-based
# Mus musculus [4] = test: Compound was tested for analgesic activity in mice after intraperitoneal administration at a dose of 10 ug/kg; Significant; type: functional, organism-based
smiles,measurement,setting,value
Clc1ccc(C2CC3CCCC2N3)cn1 (centres undefined) [HOMOEPIBATIDINE],Dose,Mus musculus [1],0.04 mg/kg
same,LD50,[2],10 mg/kg
Clc1ccc(C2CCNC2)cn1 (centres undefined),Activity,Mus musculus [3],less potent
Clc1ccc(C2CC3CCC2N3)cn1 (racemic),Activity,Mus musculus [4],Active
